Source: patent US9498450B2, “1-aminocyclohexane derivatives for the treatment of cochlear tinnitus” (MERZ PHARMA GmbH & CO. KGaA, priority 2007, dated 2016)

Test system: subjects with subjective tinnitus of at least moderate severity
Assay: Double blind placebo controlled pilot trial of neramexane for treatment of tinnitus (TBF-12/THF-12 total score)
Assay type: in vivo, human
Details: for Change in TBF-12 total score, Week 16 Neramexane-Placebo LSMean / TBF-12 total score, Change LSMean / TBF-12 total score, Neramexane-Placebo LSMean Diff. ± SE / TBF-12 total score, Week 16 Change Mean ± SD / TBF-12 total score, Week 16 Actual Mean ± SD: ITT-LOCF; for TBF-12 total score, Change LSMean / TBF-12 total score, Neramexane-Placebo LSMean Diff. ± SE / TBF-12 total score, Week 16 Change Mean ± SD: baseline to week 16; for improvement as compared to placebo treatment (difference): 50 mg dose group
Procedure: Visit 1 (screening): After signing the consent form, the subject underwent a physical examination and clinical laboratory testing. Patient eligibility for the study was evaluated via a check of inclusion/exclusion criteria. An initial Tinnitus Interview was conducted. The subject also completed a Tinnitus-Beeinträchtigungs-Fragebogen (THF-12) (i.e., a 12-item German modified and validated version (Greimel K V et al., Tinnitus-Beeinträchtigungs-Fragebogen (THF-12). Manual. Frankfurt am Main: Swets & Zeitlinger B. V.; 2000) of the 25-item Tinnitus Handicap Inventory or THI (Newman C W, et al. Development of the Tinnitus Handicap Inventory. Arch Otolaryngol Head Neck Surg 1996; 122(2): 143-148; Newman C W, et al. Psychometric adequacy of the Tinnitus Handicap Inventory (THI) for evaluating treatment outcome. J Am Acad Audiol 1998; 9(2): 153-160.)), a Hospital Anxiety and Depression Scale—Depression Subscale (HADS-D) Questionnaire and a Hyperacusis (Geräuschüberempfindlichkeit-Fragenbogen (GÜF)) Questionnaire (if applicable).
Visit 2 (baseline): The subject was asked about adverse events and changes in concomitant medication/disease, which events/changes were documented. The subject was evaluated for study eligibility based on a review of the inclusion/exclusion criteria. Trial procedures as well as allowed and forbidden concomitant medications were reviewed with the subject. An initial Tinnitus Interview was conducted. The subject also completed a THF-12, HADS-D Questionnaire and GÜF Questionnaire (if applicable). The subject was enrolled in the study and study medication (placebo or neramexane) was dispensed as described below.
Visit 6 (Week 16, end of treatment): This visit occurred at the end of the 12-week fixed-dose double-blind treatment period. The subject was asked about adverse events and changes in concomitant medication/disease, which changes are documented. A clinical laboratory evaluation was performed. A follow-up Tinnitus Interview was conducted, and the subject completed a THF-12, HADS-D Questionnaire and GÜF Questionnaire (if applicable). Pure-tone audiometry (air conduction) was also conducted.
Primary Outcome • The change in THF-12 total score from baseline (Visit 2) to the endpoint visit (Visit 6, i.e. Week 16) was the primary efficacy endpoint in this study.
All efficacy analyses were performed on the ITT population using the last-observation-carried-forward (LOCF) approach. For sensitivity purposes an analysis of the per-protocol set and of observed cases was performed additionally. All statistical tests used for testing the primary efficacy (confirmatory testing) and secondary efficacy criteria (exploratory), and all other statistical tests used for exploratory analyses were two-sided hypothesis tests performed at the 5% significance level. For all variables standard descriptive statistics were calculated.
Change from baseline (Visit 2) to Week 16 in THF-12 total score was analyzed using a two-way ANCOVA model with treatment group and study centers as factors and baseline THF-12 total score as covariate. […]

[1] = 25 mg/d, subjects with mild hearing loss
[2] = 25 mg/d, subjects with tinnitus duration 3 to <8 months
[3] = 25 mg/d, total study population
[4] = 50 mg/d, subjects with mild hearing loss
[5] = 50 mg/d, subjects with tinnitus duration 3 to <8 months
[6] = 50 mg/d, total study population
[7] = 75 mg/d, subjects with mild hearing loss
[8] = 75 mg/d, subjects with tinnitus duration 3 to <8 months
[9] = 75 mg/d, total study population

CC1(C)CC(C)(C)CC(C)(N)C1 [Neramexane, 1-amino-1,3,3,5,5-pentamethylcyclohexane]
Change in TBF-12 total score, Week 16 Neramexane-Placebo LSMean (25 mg/d, HADS-D Anxiety subscale 0-7 at baseline): 0.2
Change in TBF-12 total score, Week 16 Neramexane-Placebo LSMean (25 mg/d, HADS-D Anxiety subscale 8-10 at baseline): −2.3
Change in TBF-12 total score, Week 16 Neramexane-Placebo LSMean (25 mg/d, HADS-D Anxiety subscale >10 at baseline): 2.3
Change in TBF-12 total score, Week 16 Neramexane-Placebo LSMean (25 mg/d, HADS-D Depression subscale 0-7 at baseline): −0.3
Change in TBF-12 total score, Week 16 Neramexane-Placebo LSMean (25 mg/d, HADS-D Depression subscale 8-10 at baseline): 0.6
Change in TBF-12 total score, Week 16 Neramexane-Placebo LSMean (25 mg/d, HADS-D Depression subscale >10 at baseline): 3.9
TBF-12 total score, Change LSMean [1]: −1.3
TBF-12 total score, Neramexane-Placebo LSMean Diff. ± SE [1]: 0.7 ± 0.9
TBF-12 total score, Week 16 Change Mean ± SD [1]: −1.5 ± 3.4
TBF-12 total score, Week 16 Actual Mean ± SD (25 mg/d, subjects with mild hearing loss, score range 0-24): 13.1 ± 5.8
TBF-12 total score, Change LSMean [2]: −2.2
TBF-12 total score, Neramexane-Placebo LSMean Diff. ± SE [2]: 0.0 ± 0.8
TBF-12 total score, Week 16 Change Mean ± SD [2]: −2.5 ± 3.0
TBF-12 total score, Change LSMean [3]: −1.8
TBF-12 total score, Neramexane-Placebo LSMean Diff. ± SE [3]: 0.5 ± 0.5
TBF-12 total score, Week 16 Change Mean ± SD [3]: −2.0 ± 3.4
improvement as compared to placebo treatment (difference) (patients who showed a mild hearing loss, post-hoc p=0.024): −1.9 points
improvement as compared to placebo treatment (difference) (patients whose onset of tinnitus was three to eight months before treatment, post-hoc p=0.019): −1.9 points
Change in TBF-12 total score, Week 16 Neramexane-Placebo LSMean (50 mg/d, HADS-D Anxiety subscale 0-7 at baseline): −0.5
Change in TBF-12 total score, Week 16 Neramexane-Placebo LSMean (50 mg/d, HADS-D Anxiety subscale 8-10 at baseline): −2.9
Change in TBF-12 total score, Week 16 Neramexane-Placebo LSMean (50 mg/d, HADS-D Anxiety subscale >10 at baseline): 0.6
Change in TBF-12 total score, Week 16 Neramexane-Placebo LSMean (50 mg/d, HADS-D Depression subscale 0-7 at baseline): −1.3
Change in TBF-12 total score, Week 16 Neramexane-Placebo LSMean (50 mg/d, HADS-D Depression subscale 8-10 at baseline): −1.1
Change in TBF-12 total score, Week 16 Neramexane-Placebo LSMean (50 mg/d, HADS-D Depression subscale >10 at baseline): 3.3
TBF-12 total score, Change LSMean [4]: −3.9
TBF-12 total score, Neramexane-Placebo LSMean Diff. ± SE [4]: −1.9 ± 0.8
TBF-12 total score, Week 16 Change Mean ± SD [4]: −3.8 ± 3.9
TBF-12 total score, Week 16 Actual Mean ± SD (50 mg/d, subjects with mild hearing loss, score range 0-24): 11.5 ± 5.2
TBF-12 total score, Change LSMean [5]: −4.0
TBF-12 total score, Neramexane-Placebo LSMean Diff. ± SE [5]: −1.9 ± 0.8
TBF-12 total score, Week 16 Change Mean ± SD [5]: −4.2 ± 3.9
TBF-12 total score, Week 16 Actual Mean ± SD (50 mg/d, subjects with tinnitus duration 3 to <8 months, score range 0-24): 10.0 ± 5.1
TBF-12 total score, Change LSMean [6]: −3.1
TBF-12 total score, Neramexane-Placebo LSMean Diff. ± SE [6]: −0.8 ± 0.5
TBF-12 total score, Week 16 Change Mean ± SD [6]: −3.2 ± 4.1
Change in TBF-12 total score, Week 16 Neramexane-Placebo LSMean (75 mg/d, HADS-D Anxiety subscale 0-7 at baseline): 0.1
Change in TBF-12 total score, Week 16 Neramexane-Placebo LSMean (75 mg/d, HADS-D Anxiety subscale 8-10 at baseline): −3.1
Change in TBF-12 total score, Week 16 Neramexane-Placebo LSMean (75 mg/d, HADS-D Anxiety subscale >10 at baseline): 0.3
Change in TBF-12 total score, Week 16 Neramexane-Placebo LSMean (75 mg/d, HADS-D Depression subscale 0-7 at baseline): −0.9
Change in TBF-12 total score, Week 16 Neramexane-Placebo LSMean (75 mg/d, HADS-D Depression subscale 8-10 at baseline): 0.0
Change in TBF-12 total score, Week 16 Neramexane-Placebo LSMean (75 mg/d, HADS-D Depression subscale >10 at baseline): 0.4
TBF-12 total score, Change LSMean [7]: −1.8
TBF-12 total score, Neramexane-Placebo LSMean Diff. ± SE [7]: −0.2 ± 0.9
TBF-12 total score, Week 16 Change Mean ± SD [7]: −1.9 ± 3.2
TBF-12 total score, Week 16 Actual Mean ± SD (75 mg/d, subjects with mild hearing loss, score range 0-24): 12.0 ± 4.6
TBF-12 total score, Change LSMean [8]: −3.3
TBF-12 total score, Neramexane-Placebo LSMean Diff. ± SE [8]: −1.1 ± 0.8
TBF-12 total score, Week 16 Change Mean ± SD [8]: −3.4 ± 4.0
TBF-12 total score, Week 16 Actual Mean ± SD (75 mg/d, subjects with tinnitus duration 3 to <8 months, score range 0-24): 10.6 ± 5.0
TBF-12 total score, Week 16 Actual Mean ± SD [9]: 11.0 ± 5.1
TBF-12 total score, Change LSMean [9]: −2.8
TBF-12 total score, Neramexane-Placebo LSMean Diff. ± SE [9]: −0.5 ± 0.5
TBF-12 total score, Week 16 Change Mean ± SD [9]: −2.9 ± 3.9
benefit compared to patients with HADS score below 10 at baseline (50 or 75 mg daily dose monotherapy, patients with HADS total score of 10 or more at baseline): weaker benefit
response (effect in treating tinnitus) compared to total study population (patients treated within three to eight months of onset of tinnitus and patients with mild hearing loss): better response
response to treatment (subgroup analysis) (subjects classified by investigators as suffering from cochlear tinnitus): responded well
